Laboratory results taken from US5976523A, “Method for healing compromised tissues using pyrimidine derivatives” (Mitsui Pharmaceuticals, Inc., priority 1995, dated 1999).
Structures can show the parent of a compound that is named as a salt.

What was measured:
Ito (star) cells = experiment: DNA and collagen synthesis and αSM expression in Ito (star) cells; assay type: cell-based, SD rat
Text: (§1) As fulminant hepatitis may develop hepatocellular regeneration failure despite a high HGF concentration in blood, use of a medicament capable of enhancing effects of a growth factor is desired. Activities of a compound according to the present invention as a hepatic medicine were investigated using primary cultured cells and Ito (star) cells of rat.
On the other hand, an SD male rat of about 300 g in body weight was sacrificed by perfusion of physiological saline containing collagenase and proteinase. Ito (star) cells were collected and then spread at 1.25×10^5 cells/cm^2 over plates, followed by the initiation of cultivation. The cultivation was conducted for 6 days. In a manner similar to the procedures described above, some of the plates were added with the invention compound and [^3 H]-leucine 24 hours before harvest, while the remaining plates were added with the invention compound 24 hours before harvest and were then added with [^3 H]-tymidine two hours before the harvest. The synthesized amount of DNA and that of proteins were measured. Further, after Ito cells were cultured for 6 days, the invention compound and b-FGF were added. Subsequent to cultivation for 30 minutes, […] of ascorbic acid and 0.5 mM of β-aminopropionitrile fumarate were added, followed by cultivation for 1 hour. [2,3-^3 H]-proline (10 μCi/ml) was added, followed by further cultivation for 24 hours. The culture was separated into the culture medium and the resultant cells, and a TCA precipitate was formed. After the precipitate was dissolved with 0.1N NaOH, the cells were incubated in the presence of bacterial collagenase. The reaction was terminated with TCA-tannic acid, followed by the formation of a pellet. A supernatant fraction was added to the liquid scintillator and the amount of proteins synthesized by the cells was measured by the liquid scintillation counter.

[1] = tested on: primary cultured gastric mucosal cells; experiment: Wound repair model with primary cultured gastric mucosal cells; assay type: cell-based, rabbit
Method: Primary cultured gastric mucosal cells were prepared by mechanically peeling and mincing the gastric mucosa of a rabbit having a body weight of 2 kg and then digesting the minced gastric mucosa with 0.07% collagenase. The primary cultured gastric mucosal cells were cultured at a cell concentration of 3.3×10^5 cells/ml in F-12 culture medium containing 10% fetal calf serum added therein. For this cultivation, a culture dish (60 mm in diameter) coated with collagen type I was used. […] Using an anti-BrdU antibody, the cells in the S phase were stained to identify proliferated cells.
Their effects on the process of restoration were measured under the above-described parameters. […] In each of the control group and the medicament-added groups, the area of the wounded region was measured at the 0th hour, 12th hour, 24th hour, 36th hour and 48th hour. The measurement results will be given in this order.
The control group and the groups added with the medicament at the respective concentrations were each subjected to the experiment with n=5. The results will each be presented as a (mean±S. D.) mm2. A test of significance was conducted relative to the control group. * stands for p<0.05, ** for p<0.01, *** for p<0.001. A further test of significance was conducted relative to a group added with 10 ng/ml of EGF. + stands for p<0.05, and ++ for <0.01.

hepatocytes = experiment: DNA and protein synthesis in primary cultured hepatocytes; assay type: cell-based, SD rat
Text: as §1
An SD male rat of about 200 g in body weight was sacrificed by perfusion of collagenase-containing physiological saline. Hepatocytes were immediately collected and then spread at 5.0×10^4 cells/cm^2 over plates, followed by the initiation of cultivation. Two hours later, the culture medium was replaced by a fresh supply of the culture medium. Twenty-four hours later, EGF and [^3 H]-leucine (1 μCi/ml) were added to half the number of the plates with or without addition of 2-piperidino-7-methyl-6-oxo-5,6-dihydro(7H)pyrro[2,3-d]pyrimidine maleate, respectively. At the same time, EGF was added to the remaining plates with or without addition of the invention compound, respectively. Forty-six hours later, the latter plates were both added further with [^3 H]-tymidine (2 μCi/ml). Forty-eight hours later, each culture was filtered under suction to harvest the cells so cultivated. Trichloroacetic acid (TCA) was added to the thus-harvested cells to obtain a TCA precipitate. The TCA precipitate was formed into a pellet. The pellets which had been obtained from the [^3 H]-tymidine-added cultures, respectively, were each dissolved with 0.1N NaOH. The resulting solution was added to a liquid scintillator and the amount of DNA synthesized by the cells was measured by a liquid scintillation counter. Likewise, the pellets which had been obtained from the [^3 H]-leucine-added cultures, respectively, were each boiled at 70° C. to extract soluble matter. The extract so obtained was also added with TCA to obtain a TCA precipitate. The TCA precipitate was dissolved with 0.1N NaOH. The resulting solution was added to the liquid scintillator and the amount of proteins synthesized by the cells was measured by the liquid scintillation counter.

[2] = tested on: CAMs (chorioallantoic membranes); experiment: Angiogenesis on chorioallantoic membranes (CAM); assay type: in vivo, chick; details: day 3
Method: For a bFGF, various assay systems assessing the angiogenesis activity of the bFGF as an index are usable. The shells of chick embryos are fenestrated centrally corresponding to the air spaces thereof, whereby the chorioallantoic membranes (CAMS) are exposed. Solutions of the bFGF and a test medicament at various concentrations were applied onto the respective CAMs. Incubation was continued. Several days later, the degrees of angiogenesis were investigated under a microscope. This method is preferably employed. […] The test medicament is therefore found to be useful for the reduction of a time required for the construction of a skin-equivalent tissue. […] Also with respect to a VEGF, its angiogenesis activity can be assayed in a similar system.
The shells of eggs on the 10th day after fertilization were fenestrated centrally corresponding to air spaces thereof, whereby CAMs (chorioallantoic membranes) were exposed. A nylon film in the form of a square of 3 mm in side was placed over the CAM, and onto the nylon film, a solution of bFGF as a growth and/or differentiation factor or the pyrimidine compound according to the present invention was dropped in an amount of 8 ul. Incubation was continued at 38° C. On the 72nd hour, the eggs were moved to a cool place controlled at 4° C. After the eggs were left over for 2 to 3 hours there, the degree of angiogenesis in each egg was investigated under a microscope. The angiogenesis was determined based on the number of radial blood vessels equal to or larger than 0.1 mm in diameter. Onto the nylon disk placed over the CAMS, 1, 10, and 100 ng/ml solutions of recombinant human bFGF (product of Genzyme Corporation) in physiological saline and 0.01 to 1 mM solutions of the individual pyrimidine compound in physiological saline were applied singly or in combination.

bone defect (tibia) = experiment: Rat bone defect model, formation of hyaline cartilage matrix; assay type: in vivo; details: bFGF (0.5 μg) pellet, 7th day
Text: Action of 2-piperazino-6-methyl-5-oxo-5,6-dihydro(7H)pyrro[3,4-d]pyrimidinemaleate on in vivo chondrogenesis was studied in detail by preparing a rat bone defect model which permits observation of bFGF-derived formation of a hyaline cartilage matrix. Embedment of a bFGF-containing pellet in a bone defect of the model permits easy observation of formation of a hyaline cartilage matrix under the periosteum around the bone defect. Rats were divided into three groups. The rats in one of the groups were each embedded in a formed bone defect (diameter: 2.6 mm) thereof with a hydroxyethyl methacrylate pellet (10 mg) which contained bFGF (0.5 μg). The rats in another one of the groups were each embedded likewise with a hydroxyethyl methacrylate pellet (10 mg) which contained bFGF (0.5 μg) and the invention compound (0.5 mg). The rats in the remaining group, that is, a control group were each embedded similarly with a pellet which contained physiological saline. After the rats in all the three groups were sacrificed seven days later, action of bFGF or the invention compound on the process of chondrogenesis on enchondral ossification around the bone defect was investigated. On the 7th day after the formation of the bone defect, the tibia of each rat was histologically examined around the bone defect.

[3] = 1 μM to 100 μM, irrespective of b-FGF

In the case of CN1C(=O)Cc2cnc(N3CCCCC3)nc21 [Compound A, 2-piperidino-7-methyl-6-oxo-5,6-dihydro(7H)pyrro[2,3-d]pyrimidine maleate], the “synthesis of DNA by the star cells” value (Ito (star) cells; [3]) is reported as “lowered depending on the amount of the invention compound”, the “synthesis of collagen by the star cells” value (Ito (star) cells; [3]) is reported as “lowered depending on the amount of the invention compound” and the “expression of αSM” value (Ito (star) cells; compound with b-FGF, quantity-dependent) is reported as “allowed to recover by the addition of the invention compound in a quantity-dependent manner”. The “expression of α2-smooth muscle actin (αSM)” value (Ito (star) cells; compound, absence of b-FGF) was “lowered by the addition of the invention compound”, the “area of the wounded region (mean±S.D.)” value ([1]; EGF + 0.01 mM compound, 0th hour) was 2.06±0.05 mm2 and the “area of the wounded region (mean±S.D.)” value ([1]; EGF + 0.01 mM compound, 12th hour) was 0.72±0.36 mm2. For the same molecule, the “area of the wounded region (mean±S.D.)” value ([1]; EGF + 0.01 mM compound, 24th hour) was 0.39±0.04 mm2, the “area of the wounded region (mean±S.D.)” value ([1]; EGF + 0.01 mM compound, 36th hour) was 0.05±0.04 mm2 and the “area of the wounded region (mean±S.D.)” value ([1]; EGF + 0.01 mM compound, 48th hour) was 0 mm2. The “area of the wounded region (mean±S.D.)” value ([1]; EGF + 0.1 mM compound, 0th hour) was 2.08±0.08 mm2, the “area of the wounded region (mean±S.D.)” value ([1]; EGF + 0.1 mM compound, 12th hour) was 0.80±0.04 mm2 and the “area of the wounded region (mean±S.D.)” value ([1]; EGF + 0.1 mM compound, 24th hour) was 0.24±0.05 mm2. The “area of the wounded region (mean±S.D.)” value ([1]; EGF + 0.1 mM compound, 36th hour) was 0 mm2, the “area of the wounded region (mean±S.D.)” value ([1]; EGF + 0.1 mM compound, 48th hour) was 0 mm2 and the “effect on EGF-induced acceleration of cell restoration” value ([1]; compound 0.01-0.1 mM with EGF) was “further promoted the EGF-induced acceleration of cell restoration in a concentration-dependent fashion”. The repairing effects ([1]; compound alone 0.01-0.1 mM, absence of EGF) was “did not show repairing effects in the absence of EGF”, the “concentration of albumin in the supernatant” value (hepatocytes; 10 μM compound, with EGF) was “no change was observed” and the “expression of mRNA (albumin)” value (hepatocytes; 10 μM compound, with EGF) was “no change was observed”. The “synthesis of DNA by the hepatocytes” value (hepatocytes; 10 μM compound, with EGF) was “significantly increased” and the “synthesis of DNA by the hepatocytes” value (hepatocytes; without EGF) was “not recognized to promote the synthesis of DNA”.
In the case of “bFGF: basic fibroblast growth factor; recombinant human bFGF (product of Genzyme Corporation) in Example 26”, the “expression of αSM” value (Ito (star) cells; b-FGF alone) is reported as “lowered by the presence of b-FGF”, the “number of new blood vessels (M±SE)” value ([2]; bFGF alone 1 ng/ml) is reported as 4.1±0.4 and the “number of new blood vessels (M±SE)” value ([2]; bFGF alone 10 ng/ml) is reported as 4.3±0.7. For the same molecule, the “number of new blood vessels (M±SE)” value ([2]; bFGF alone 100 ng/ml) was 6.1±1.1 and the “formation of a hyaline cartilage matrix” value (bone defect (tibia)) was “in a small amount”.
